Here are results for six compounds from ChEMBL document CHEMBL3817783, “Identification of Potential Off-target Toxicity Liabilities of Catechol-O-methyltransferase Inhibitors by Differential Competition Capture Compound Mass Spectrometry” (J Med Chem, 2016).

For data set [1], the target named is T1, Pyridoxal kinase (Homo sapiens, UniProt O00764).
T1 sequence (O00764 whole entry): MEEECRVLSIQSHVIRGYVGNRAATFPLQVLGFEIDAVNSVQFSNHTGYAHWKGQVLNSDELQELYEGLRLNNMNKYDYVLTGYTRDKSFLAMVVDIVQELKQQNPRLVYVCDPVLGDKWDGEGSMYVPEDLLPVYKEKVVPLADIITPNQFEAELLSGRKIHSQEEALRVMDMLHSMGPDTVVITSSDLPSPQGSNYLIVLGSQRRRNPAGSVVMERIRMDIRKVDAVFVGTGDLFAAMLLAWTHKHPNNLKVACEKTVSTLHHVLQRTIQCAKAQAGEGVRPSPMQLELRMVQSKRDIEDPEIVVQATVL
The data set is described as follows: Binding affinity to PDXK in human HepG2 assessed as intensity fold change of cumulated normalized intensity of protein between capture and competition assay at 100 uM after 1 hr in presence of inactive Tcp-CC 14 by differential competition capture compound mass spectrometry. It counts as ADME.

Data set [2] deals with T2, 3-hydroxyisobutyryl-CoA hydrolase, mitochondrial (Homo sapiens) (UniProt Q6NVY1).
T2 sequence (whole entry): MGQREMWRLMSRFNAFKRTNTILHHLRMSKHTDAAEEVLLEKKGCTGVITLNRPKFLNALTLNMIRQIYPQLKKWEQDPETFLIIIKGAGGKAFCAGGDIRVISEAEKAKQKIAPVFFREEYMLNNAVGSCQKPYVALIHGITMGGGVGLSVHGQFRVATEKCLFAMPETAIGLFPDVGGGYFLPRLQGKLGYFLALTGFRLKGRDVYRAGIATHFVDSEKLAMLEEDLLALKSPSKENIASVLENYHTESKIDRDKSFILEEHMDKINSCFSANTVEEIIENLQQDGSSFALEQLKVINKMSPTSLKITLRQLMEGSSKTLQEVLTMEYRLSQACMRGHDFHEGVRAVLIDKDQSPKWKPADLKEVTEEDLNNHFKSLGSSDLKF
Kind of data set: Binding affinity to human recombinant HIBCH assessed as intensity fold change of cumulated normalized intensity of protein between capture and competition assay at 100 uM after 1 hr in presence of active Tcp-CC-13 by differential competition capture compound mass spectrometry.

Data set [3] addresses Kynurenine--oxoglutarate transaminase 3 (Homo sapiens, UniProt Q6YP21). Kind of data set: Binding affinity to CCBL2 in human HepG2 assessed as intensity fold change of cumulated normalized intensity of protein between capture and competition assay at 100 uM after 1 hr in presence of active Tcp-CC-13 by differential competition capture compound mass spectrometry. Type of data set: ADME.

In data set [4] the test system is HepG2. The data set is described as follows: Mitochondrial toxicity in human HepG2 cells assessed as mitochondrial membrane potential levels at 50 uM by TMRE-based mitochondria membrane potential assay relative to control. Type of data set: cell-based. The settings on record: hepg2, 50 µM.
For data set [5], the target named is T3, Protein NipSnap homolog 3A (Homo sapiens, UniProt Q9UFN0).
T3 sequence (Q9UFN0 whole entry): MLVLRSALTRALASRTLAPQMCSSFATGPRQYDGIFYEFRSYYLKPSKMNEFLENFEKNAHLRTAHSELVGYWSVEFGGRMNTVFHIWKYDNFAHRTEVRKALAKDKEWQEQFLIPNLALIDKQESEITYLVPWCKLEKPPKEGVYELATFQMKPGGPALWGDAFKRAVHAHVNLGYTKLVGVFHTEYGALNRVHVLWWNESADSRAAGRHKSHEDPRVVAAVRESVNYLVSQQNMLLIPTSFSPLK
Kind of data set: Binding affinity to NIPSNAP3A in human HepG2 assessed as intensity fold change of cumulated normalized intensity of protein between capture and competition assay at 100 uM after 1 hr in presence of inactive Tcp-CC 14 by differential competition capture compound mass spectrometry. It counts as ADME.

In data set [6] the target is T4, Acireductone dioxygenase (Homo sapiens, UniProt Q9BV57).
T4 sequence (Q9BV57 whole entry): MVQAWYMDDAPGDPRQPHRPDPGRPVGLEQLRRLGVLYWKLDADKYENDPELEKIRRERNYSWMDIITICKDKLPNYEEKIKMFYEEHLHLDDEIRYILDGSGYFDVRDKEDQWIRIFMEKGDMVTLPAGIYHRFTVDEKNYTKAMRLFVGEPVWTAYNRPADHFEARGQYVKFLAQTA
The data set is described as follows: Binding affinity to ADL1 in human HepG2 assessed as intensity fold change of cumulated normalized intensity of protein between capture and competition assay at 100 uM after 1 hr in presence of active Tcp-CC-13 by differential competition capture compound mass spectrometry. It counts as ADME.

The target in data set [7] is Aldo-keto reductase family 1 member B10 (Homo sapiens, UniProt O60218). The data set is described as follows: Binding affinity to AKR1B10 in human HepG2 assessed as intensity fold change of cumulated normalized intensity of protein between capture and competition assay at 100 uM after 1 hr in presence of inactive Tcp-CC 14 by differential competition capture compound mass spectrometry. Type of data set: ADME.
Aldo-keto reductase family 1 member B10, sequence (O60218 whole entry): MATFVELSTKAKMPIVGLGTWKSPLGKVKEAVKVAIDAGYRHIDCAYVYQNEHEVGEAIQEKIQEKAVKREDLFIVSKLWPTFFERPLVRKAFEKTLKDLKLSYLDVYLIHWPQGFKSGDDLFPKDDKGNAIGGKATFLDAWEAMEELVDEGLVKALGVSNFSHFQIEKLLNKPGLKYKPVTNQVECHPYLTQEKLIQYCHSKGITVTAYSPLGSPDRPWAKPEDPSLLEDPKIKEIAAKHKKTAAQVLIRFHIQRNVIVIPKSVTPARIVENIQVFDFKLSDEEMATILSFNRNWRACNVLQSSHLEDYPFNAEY

For data set [8], the target named is T5, Catechol O-methyltransferase (Homo sapiens, UniProt P21964).
T5 sequence (P21964 whole entry): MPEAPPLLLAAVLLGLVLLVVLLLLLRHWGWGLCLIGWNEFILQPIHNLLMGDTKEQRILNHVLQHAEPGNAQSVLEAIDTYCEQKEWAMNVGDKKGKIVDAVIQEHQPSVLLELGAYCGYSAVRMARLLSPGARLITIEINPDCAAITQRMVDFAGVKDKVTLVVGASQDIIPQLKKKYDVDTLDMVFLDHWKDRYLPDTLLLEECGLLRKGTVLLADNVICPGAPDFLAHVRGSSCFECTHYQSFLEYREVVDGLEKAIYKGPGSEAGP
The data set is described as follows: (§1) Inhibition of human recombinant His-tagged soluble COMT expressed in Escherichia coli BL21 using aesculetin as substrate after 60 mins by microplate assay in presence of SAM.

Data set [9] addresses T6, Glutaryl-CoA dehydrogenase, mitochondrial (Homo sapiens, UniProt Q92947).
T6 sequence (Q92947 whole entry): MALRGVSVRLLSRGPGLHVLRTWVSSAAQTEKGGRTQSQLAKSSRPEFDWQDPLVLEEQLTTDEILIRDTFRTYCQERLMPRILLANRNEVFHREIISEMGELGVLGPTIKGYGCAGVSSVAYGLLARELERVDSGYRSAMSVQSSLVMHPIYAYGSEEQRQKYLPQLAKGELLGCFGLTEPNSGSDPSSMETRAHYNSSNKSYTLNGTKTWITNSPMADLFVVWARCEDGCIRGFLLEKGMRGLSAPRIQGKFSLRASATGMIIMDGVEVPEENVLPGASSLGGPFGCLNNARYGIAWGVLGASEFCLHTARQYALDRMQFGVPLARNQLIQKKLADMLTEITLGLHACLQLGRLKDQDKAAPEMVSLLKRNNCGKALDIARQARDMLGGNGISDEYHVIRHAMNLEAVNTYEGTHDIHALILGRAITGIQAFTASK
Kind of data set: Binding affinity to GCDH in human HepG2 assessed as intensity fold change of cumulated normalized intensity of protein between capture and competition assay at 100 uM after 1 hr in presence of active Tcp-CC-13 by differential competition capture compound mass spectrometry. It counts as ADME.

The test system of data set [10] is HepG2. Kind of data set: Mitochondrial toxicity in human HepG2 cells assessed as mitochondrial membrane potential levels at 100 uM by TMRE-based mitochondria membrane potential assay relative to control. Type of data set: cell-based. The settings on record: hepg2, 100 µM.
Data set [11] addresses T7, Catechol O-methyltransferase (Homo sapiens) (UniProt P21964).
T7 sequence (whole entry): T5 sequence (P21964 whole entry)
The data set is described as §1.

The target in data set [12] is T2, 3-hydroxyisobutyryl-CoA hydrolase, mitochondrial (Homo sapiens). The data set is described as follows: Binding affinity to human recombinant HIBCH assessed as intensity fold change of cumulated normalized intensity of protein between capture and competition assay at 100 uM after 1 hr in presence of inactive Tcp-CC-14 by differential competition capture compound mass spectrometry.

pIC50: −log10 of the molar value. Activity calls are given as the source filed them. No cut-off for these calls is given here. Some results are limits rather than exact numbers.

For orientation: pIC50 means the IC50 on a negative log10 scale, so that one unit is a factor of ten.

Kynurenine--oxoglutarate transaminase 3, sequence (Q6YP21 whole entry): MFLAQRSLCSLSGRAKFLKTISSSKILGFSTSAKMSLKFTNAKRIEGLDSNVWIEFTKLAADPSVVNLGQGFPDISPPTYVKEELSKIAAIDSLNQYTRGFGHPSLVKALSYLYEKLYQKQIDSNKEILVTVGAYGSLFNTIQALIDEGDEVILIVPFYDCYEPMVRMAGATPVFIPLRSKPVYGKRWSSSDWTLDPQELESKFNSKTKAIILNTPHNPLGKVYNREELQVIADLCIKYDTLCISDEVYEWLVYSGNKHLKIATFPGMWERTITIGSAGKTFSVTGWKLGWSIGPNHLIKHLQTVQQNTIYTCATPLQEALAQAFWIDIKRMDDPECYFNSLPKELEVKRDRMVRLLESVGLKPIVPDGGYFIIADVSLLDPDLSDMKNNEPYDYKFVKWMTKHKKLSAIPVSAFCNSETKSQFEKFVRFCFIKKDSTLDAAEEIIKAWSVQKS

As for `CCN1C(=O)S/C(=C/c2cc(O)c(O)c([N+](=O)[O-])c2)C1=O`, the “fold change (FC)” value in [1] was found to be 24.9; in data set [2] it was 1; in data set [3] it was 3.4; in data set [5], 3; in [6] it was 4.29; in [7] it was 3.1. In addition, in [9], the “fold change (FC)” value is reported as 6.34. Moreover, in data set [4], the Activity is above 50%. In addition, the negative logarithm of the IC50 (pIC50) in [8] was 6.75.

On to `CCN(CC)C(=O)/C(C#N)=C/c1cc(O)c(O)c([N+](=O)[O-])c1` [ENTACAPONE], for which the “fold change (FC)” value in [1] came to 3.46; in data set [2], 1.04; in data set [3], 8.63; in [5], 2.11; in [6], 2.38; in data set [7] it was 2.98. In [9], the “fold change (FC)” value was found to be 6.09. In addition, the Activity in data set [4] was above 50%; in data set [10], 40%.

Turning to `Cc1ccc(C(=O)c2cc(OCCCCNC(=O)C[C@H](NC(=O)c3ccc(N=[N+]=[N-])cc3)C(=O)NCCCOCCOCCOCCCNC(=O)CCCC[C@@H]3SC[C@@H]4NC(=O)N[C@@H]43)c(O)c([N+](=O)[O-])c2)cc1`, in data set [11], the inhibition entry is “inactive”.

Take `CCN(CC)C(=O)c1cc2cc(O)c(O)c([N+](=O)[O-])c2cc1C(=O)N(CC)CC`: the “fold change (FC)” value in [1] came out at 16; in data set [2], 5.35; in [3], 3.05; in data set [5] it was 7.5; in [6], 3.67; in [7], 4.7. The “fold change (FC)” value in data set [9] came to 5.9. Further, the outcome in [12] was inactive. The Activity is below 20% in data set [4] and 0% in data set [10].

On to `Cc1ccc(C(=O)c2cc(O)c(O)c([N+](=O)[O-])c2)cc1` [TOLCAPONE], for which the “fold change (FC)” value in data set [1] came out at 2.4; in [2], 14.2; in [3], 4.12; in data set [6] it was 7.59; in [7] it was 2.3; in data set [9] it was 5.82. For the same compound, the result in data set [12] was Active. Moreover, the Activity is given as below 20% in data set [4] and 0% in data set [10].

On to `CN(Cc1ccc(C(=O)c2cc(O)c(O)c([N+](=O)[O-])c2)cc1)C(=O)CCCCCNC(=O)C[C@H](NC(=O)c1ccc(N=[N+]=[N-])cc1)C(=O)NCCCOCCOCCOCCCNC(=O)CCCC[C@@H]1SC[C@@H]2NC(=O)N[C@@H]21`, for which the pIC50 in [8] was 6.19.
